Some test systems named below: M19-MEL; DMS-114; LXFL 529; XF498; SNB-78; DMS-273; DLD-1; HOP-18; RXF 631.
Common to all, as to test: NCI tumour cell line growth inhibition, 48 h

SMILES strings stand for the structures.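 Briefly, cells in 96-well plates were exposed to five compound concentrations for 48 h, and endpoints were estimated by linear interpolation. GI50 is the concentration that inhibits growth by half.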 Active and inactive are the calls of the source. Cut-off read from the data, not from the text of the source: active = GI50 up to about 1.1 µM and inactive = higher. Where only a bound is given, the exact number is not on record here.

`CC(C)N(C(=O)C12C3C4C1C1C2C3C41C(=O)C(C)(C)C)C(C)C` (stereo unspecified): the GI50 in the assay on M19-MEL is > 100 µM (inactive); in the assay with DMS-114, 52.5 µM (inactive); in the assay on LXFL 529 it was > 100 µM (inactive); in the assay with XF498, > 100 µM (inactive); in the assay on SNB-78 it was > 100 µM (inactive); in the assay on DMS-273, > 100 µM (inactive). The GI50 in the assay with DLD-1 is > 100 µM (inactive).
With `N#Cc1cccc2c1Nc1ccccc1S2`, the GI50 is > 100 µM (inactive) in the assay on M19-MEL; 37.3 µM (inactive) with HOP-18; 81.1 µM (inactive) with DMS-114; 41.8 µM (inactive) with XF498; 67.9 µM (inactive) in the assay with SNB-78; > 100 µM (inactive) in the assay with DMS-273. Further, the GI50 in the assay with DLD-1 is > 100 µM (inactive).
Take `O=C(Nc1ccccc1C(=O)NC(=O)c1ccccc1NC(=O)c1ccccc1)c1ccccc1`: the GI50 with HOP-18 is 4.49 µM (inactive); in the assay with DMS-114, 2.17 µM (inactive); in the assay with XF498 it was 1.69 µM (inactive); with DMS-273, 2.29 µM (inactive); with DLD-1, 12.5 µM (inactive).
Regarding `COc1cc(Nc2cnc3cc(C(F)(F)F)ccc3n2)cc(OC)c1OC`, the GI50 with M19-MEL, in the assay with RXF 631, in the assay with HOP-18, in the assay on LXFL 529, in the assay on XF498 and with SNB-78 was > 100 µM (inactive) each time. The GI50 in the assay on DMS-273 and with DLD-1 was > 100 µM (inactive) each time.
For the compound `COc1c(I)c(OC)c2c(c1I)O[C@@H]1OCC[C@H]21`, the GI50 in the assay with M19-MEL is 23.8 µM (inactive); with RXF 631, 29.9 µM (inactive); with HOP-18, 24.3 µM (inactive); in the assay on DMS-114, 26.5 µM (inactive); in the assay with LXFL 529, 26.9 µM (inactive); with XF498, 30.3 µM (inactive). Also, the GI50 is 57.9 µM (inactive) in the assay on SNB-78, 23.1 µM (inactive) in the assay with DMS-273 and > 100 µM (inactive) in the assay on DLD-1.
Consider `Cc1ccc(S(=O)(=O)NC(=O)C#CCOC2CCCCO2)cc1` (stereo unspecified), for which the GI50 in the assay on M19-MEL, in the assay on RXF 631, in the assay with HOP-18, in the assay on DMS-114, in the assay on LXFL 529 and in the assay on XF498 was > 100 µM (inactive) each time. The GI50 in the assay on DMS-273 and with DLD-1 was > 100 µM (inactive) throughout.
As for `COc1cccc2c1C(=O)c1c(O)c3c(c(O)c1C2=O)C[C@@](O)(/C(C)=N\O)C[C@@H]3OC1CC(N)C(O)C(C)O1` (stereo partly specified), the GI50 in the assay with M19-MEL is 0.743 µM (active); in the assay on RXF 631 it was 2.24 µM (inactive); in the assay with HOP-18, 2.18 µM (inactive); in the assay with DMS-114, 0.371 µM (active); with LXFL 529 it was 0.508 µM (active); in the assay on XF498, 0.21 µM (active). For the same compound, the GI50 with SNB-78 was 1.28 µM (inactive); in the assay with DMS-273 it was 0.454 µM (active); with DLD-1, 1.95 µM (inactive).
In the case of `COC(=O)C(=C/c1ccc(OC)cc1)/C(C(=O)O)=C(/C)c1ccccc1`, the GI50 in the assay with M19-MEL, with HOP-18, in the assay on LXFL 529, with XF498, in the assay on SNB-78 and with DMS-273 was > 100 µM (inactive) in each case. Further, the GI50 in the assay with DLD-1 was > 100 µM (inactive).
For the compound `COc1ccccc1NC(=O)NS(=O)(=O)c1ccccc1`, the GI50 with M19-MEL was > 100 µM (inactive); in the assay with HOP-18, 48.2 µM (inactive); in the assay on DMS-114, > 100 µM (inactive); in the assay with LXFL 529, > 100 µM (inactive); with SNB-78, > 100 µM (inactive); in the assay on DMS-273 it was > 100 µM (inactive). In addition, in the assay with DLD-1, the GI50 is > 100 µM (inactive).
`Cc1ccccc1-n1c(CCl)nc2ccc(Br)cc2c1=O`: the GI50 with M19-MEL is 6.15 µM (inactive); with RXF 631, 16.9 µM (inactive); with HOP-18, 22.9 µM (inactive); in the assay on DMS-114, 7.46 µM (inactive); in the assay with LXFL 529, 0.887 µM (active); in the assay on SNB-78 it was 18.2 µM (inactive). The GI50 is 26 µM (inactive) with DMS-273 and 3.82 µM (inactive) in the assay on DLD-1.
Regarding `N#Cc1nc(Nc2ccc([N+](=O)[O-])cc2)sc1N`, the GI50 in the assay with M19-MEL is 25.2 µM (inactive); in the assay on RXF 631 it was 11.4 µM (inactive); in the assay on HOP-18, 61.2 µM (inactive); with LXFL 529, 8.69 µM (inactive); with XF498, 17.3 µM (inactive); in the assay with SNB-78 it was 32.2 µM (inactive). Moreover, the GI50 in the assay with DMS-273 was 21.2 µM (inactive); in the assay on DLD-1, 23.4 µM (inactive).
For the compound `C#CC(C)(C)Oc1cc(O)c2c(=O)c3ccccc3n(C)c2c1`, the GI50 in the assay on RXF 631, with HOP-18, with DMS-114, in the assay with LXFL 529, in the assay with XF498 and in the assay with SNB-78 was > 100 µM (inactive) throughout. For the same compound, in the assay on DMS-273, the GI50 is 23.1 µM (inactive).
For the compound `CCCCOC(=O)NC(=O)c1cn(CCCOC(=O)CCCCCCCCC(=O)OCCCn2cc(C(=O)NC(=O)OCCCC)c(=O)[nH]c2=O)c(=O)[nH]c1=O`, the GI50 in the assay on M19-MEL was > 100 µM (inactive); in the assay on RXF 631, 98.6 µM (inactive); with HOP-18, 24.9 µM (inactive); in the assay with DMS-114 it was > 100 µM (inactive); in the assay on LXFL 529 it was > 100 µM (inactive); with XF498, > 100 µM (inactive). Further, the GI50 in the assay on DLD-1 was > 100 µM (inactive).
On to `C=C1CC2OC(=O)C(=C)C2C(O)C2C(=C)CCC12` (stereo unspecified), for which the GI50 in the assay on M19-MEL is 5.19 µM (inactive); with HOP-18, 15.9 µM (inactive); in the assay on DMS-114 it was 4.55 µM (inactive); with LXFL 529, 4.33 µM (inactive); with SNB-78, 6.56 µM (inactive); in the assay on DMS-273 it was 8.2 µM (inactive). For the same compound, the GI50 with DLD-1 was 10.1 µM (inactive).
Regarding `C=C1C(=O)OC2C/C(C)=C/CC/C(C)=C/CCC3(COC(C)=O)OC3CC12` (stereo unspecified), the GI50 with M19-MEL is 13.1 µM (inactive); in the assay on HOP-18, 11.2 µM (inactive); with DMS-114, 4.09 µM (inactive); with LXFL 529 it was 2.77 µM (inactive); in the assay with XF498, 7.11 µM (inactive); in the assay on SNB-78, 7.71 µM (inactive). Also, the GI50 with DMS-273 was 3.87 µM (inactive); in the assay on DLD-1, 3.81 µM (inactive).
With `COc1cccc2c1C(=O)c1c(O)c3c(c(O)c1C2=O)C[C@@](O)(C(=O)CO)CC3OC1CC(O)C(O)C(C)O1` (stereo partly specified), the GI50 in the assay on M19-MEL is 0.218 µM (active); in the assay on RXF 631, 0.188 µM (active); in the assay on HOP-18 it was 0.277 µM (active); in the assay with DMS-114, 0.188 µM (active); with LXFL 529, 0.461 µM (active); in the assay on XF498, 0.102 µM (active). The GI50 is 1.28 µM (inactive) in the assay with SNB-78, 0.033 µM (active) in the assay with DMS-273 and 0.385 µM (active) in the assay with DLD-1.
On to `Cc1cccc(C)c1NC(=O)C(=O)Nn1c(NN)nc2ccccc2c1=O`, for which the GI50 in the assay with M19-MEL, with RXF 631, in the assay on HOP-18, in the assay with DMS-114, in the assay on LXFL 529 and with SNB-78 was > 100 µM (inactive) each time. In addition, the GI50 with DMS-273 was > 100 µM (inactive).
Regarding `O=C1C2C3C=C4c5ccccc5N(c5ccccc5)C4([C@@H]2C(=O)N1c1ccc(F)cc1)[C@H]1C(=O)N(c2ccc(F)cc2)C(=O)[C@@H]31` (stereo partly specified), the GI50 was > 100 µM (inactive) in the assay on M19-MEL; > 100 µM (inactive) in the assay on HOP-18; > 100 µM (inactive) in the assay with DMS-114; > 100 µM (inactive) in the assay with XF498; 82.2 µM (inactive) in the assay on SNB-78; > 100 µM (inactive) in the assay on DLD-1.
With `Cc1cc(Cl)ccc1NC(=O)CCCC(=O)C1C/C(=N/O)CC/C1=N\O` (stereo unspecified), the GI50 in the assay with M19-MEL, in the assay with RXF 631, in the assay with HOP-18, in the assay with DMS-114, with LXFL 529 and in the assay on XF498 was > 100 µM (inactive) throughout. The GI50 in the assay on SNB-78, with DMS-273 and in the assay on DLD-1 was > 100 µM (inactive) in each case.
Take `CC1=C(C(=O)NCc2ccccc2)C(/C=C/c2ccccc2)C(C(=O)NCc2ccccc2)=C(C)N1`: the GI50 in the assay on M19-MEL, in the assay with HOP-18, in the assay with DMS-114, in the assay on LXFL 529, in the assay on XF498 and with SNB-78 was > 100 µM (inactive) throughout. Besides, the GI50 with DMS-273 and in the assay on DLD-1 was > 100 µM (inactive) each time.
`CC(=O)NCCCCCCNC(C)=O` [HEXAMETHYLENEBISACETAMIDE]: the GI50 was 5750 µM (inactive) with M19-MEL; 7530 µM (inactive) in the assay with HOP-18; 3860 µM (inactive) in the assay on DMS-114; 3180 µM (inactive) in the assay on XF498; 6590 µM (inactive) in the assay with SNB-78; 3600 µM (inactive) with DMS-273. For the same compound, the GI50 with DLD-1 was 8240 µM (inactive).
Regarding `COc1ccc2c(c1)[n+]([O-])c(/C(C)=N/NC(=O)c1ccccc1O)c(C)[n+]2[O-]`, the GI50 in the assay with M19-MEL is > 100 µM (inactive); in the assay on RXF 631 it was > 100 µM (inactive); in the assay with HOP-18, > 100 µM (inactive); in the assay with DMS-114, > 100 µM (inactive); in the assay with LXFL 529, > 100 µM (inactive); in the assay with XF498 it was 81.5 µM (inactive). Also, the GI50 in the assay on SNB-78 and in the assay on DLD-1 was > 100 µM (inactive) in each case.
